Article PMC3084834, “Non-Conjugated Small Molecule FRET for Differentiating Monomers from Higher Molecular Weight Amyloid Beta Species” (PLoS ONE, 2011)

How the values were obtained:
[1] = target: T1, Amyloid beta 40 (Aβ40) aggregates (Homo sapiens, UniProt P05067); assay: FRET with CRANAD-5 on Aβ[…] aggregates; apparent Kd printed in Results; assay type: binding; details: cited from earlier work
T1 construct: gene APP; synthetic amyloid-β peptide (1-40), aggregated

[2] = target: T1, Amyloid beta 40 (Aβ40) aggregates; assay: fluorescence titration of Aβ[…] aggregates, one-site binding fit

T1 sequence (P05067 672-711 limits assumed): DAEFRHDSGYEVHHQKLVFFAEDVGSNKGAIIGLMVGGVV

Compound | Kd [1] | Kd [2]
CN(C)c1ccc(/C=C/C2=CC(/C=C/c3ccc(N(C)C)cc3)=[O+][B-](F)(F)O2)cc1 [CRANAD-2] | 38 nM | –
CN(C)c1ccc(/C=C/C(=O)/C=C(O)/C=C/c2ccc(N(C)C)cc2)cc1 [CRANAD-5] | – | 10.5 ± 2.5 nM
